Reference: the supplement of paper PMC11619387
Values after ≈ are worked out from the molar mass of the structure shown. ± gives the standard deviation of the averaged measurements.

Experiments:
[1] = test system: Pseudomonas aeruginosa PAO1-Xen41; test: EC50 of growth/kill rate concentration-effect curve
Procedure: (§1)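 Time-kill assays of bioluminescent P. aeruginosa PAO1-Xen41 (start ~5e6 CFU/mL) in 96-well plates at 37 °C, 150 rpm. Luminescence was read hourly for 20 h in cation-adjusted Mueller-Hinton broth, either non-conditioned (MH broth with or without supplements) or conditioned by one of 13 CF-associated species, then filter-sterilised and nutrient-replenished. Growth/kill rates came from log-linear regression of the exponential phase at 9-10 antibiotic concentrations, and Hill (Emax) models were fitted with drc for each replicate.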

[2] = test system: Pseudomonas aeruginosa PAO1-Xen41; test: Hill coefficient of concentration-effect curve (unitless); higher = steeper concentration-effect curve
Procedure: as §1

[3] = test system: Pseudomonas aeruginosa PAO1-Xen41; test: Emax, maximal drug effect on net growth rate (fitted lower asymptote) (per hour (slope of log luminescence)); higher = weaker maximal killing (less negative)
Procedure: as §1

C[C@@H](O)[C@H]1C(=O)N2C(C(=O)O)=C(S[C@@H]3CN[C@H](C(=O)N(C)C)C3)[C@H](C)[C@H]12 [meropenem]
Settings	EC50, [1] [µg/mL]	Emax, [3]	Hill coefficient, [2]
medium (conditioned by secondary species or non-conditioned control): A. baumannii	2.68 ± 0.29 (≈ 6.99 µM)	-0.0771 ± 0.0085	6.64 ± 1.9
medium (conditioned by secondary species or non-conditioned control): A. fumigatus	0.389 ± 0.0045 (≈ 1.01 µM)	-0.093 ± 0.0021	7.42 ± 0.85
medium (conditioned by secondary species or non-conditioned control): A. xylosoxidans	1.25 ± 0.12 (≈ 3.26 µM)	-0.0831 ± 0.0047	4.28 ± 0.44
medium (conditioned by secondary species or non-conditioned control): B. cepacia	0.916 ± 0.06 (≈ 2.39 µM)	-0.0593 ± 0.0063	12.1 ± 0.73
medium (conditioned by secondary species or non-conditioned control): C. albicans	0.784 ± 0.017 (≈ 2.04 µM)	-0.12 ± 0.0059	3.15 ± 0.22
medium (conditioned by secondary species or non-conditioned control): H. influenzae	0.6259 ± 0.0061 (≈ 1.63 µM)	-0.172 ± 0.0075	2.15 ± 0.064
medium (conditioned by secondary species or non-conditioned control): M. abcessus	0.609 ± 0.015 (≈ 1.59 µM)	-0.0816 ± 0.0014	5.75 ± 0.49
medium (conditioned by secondary species or non-conditioned control): M. avium	0.337 ± 0.0068 (≈ 0.878 µM)	-0.0509 ± 0.0049	7.81 ± 0.13
medium (conditioned by secondary species or non-conditioned control): M. catarrhalis	1.91 ± 0.18 (≈ 4.99 µM)	-0.0746 ± 0.016	6.15 ± 1.7
medium (conditioned by secondary species or non-conditioned control): MH broth	0.612 ± 0.014 (≈ 1.6 µM)	-0.0947 ± 0.0021	4.27 ± 0.5
medium (conditioned by secondary species or non-conditioned control): MH broth + ADC	0.2684 ± 0.00094	-0.0675 ± 0.003	15.3 ± 0.38
medium (conditioned by secondary species or non-conditioned control): MH broth + LHB + NAD	0.663 ± 0.027	-0.125 ± 0.0027	3.73 ± 0.49
medium (conditioned by secondary species or non-conditioned control): MH broth + glucose	0.628 ± 0.0068	-0.0923 ± 0.0018	3 ± 0.15
medium (conditioned by secondary species or non-conditioned control): R. mannitolilytica	0.6203 ± 0.0062 (≈ 1.62 µM)	-0.0818 ± 0.0026	8.16 ± 0.49
medium (conditioned by secondary species or non-conditioned control): S. aureus	0.7071 ± 0.0046 (≈ 1.84 µM)	-0.0714 ± 0.0052	10 ± 0.16
medium (conditioned by secondary species or non-conditioned control): S. maltophilia	1.18 ± 0.1 (≈ 3.07 µM)	-0.0918 ± 0.013	3.29 ± 0.2
medium (conditioned by secondary species or non-conditioned control): S. pneumoniae	0.938 ± 0.069 (≈ 2.45 µM)	-0.189 ± 0.017	4.34 ± 0.71

CN(C)c1ccc(O)c2c1C[C@H]1C[C@H]3[C@H](N(C)C)C(O)=C(C(N)=O)C(=O)[C@@]3(O)C(O)=C1C2=O [minocycline]
Settings	EC50, [1] [µg/mL]	Emax, [3]	Hill coefficient, [2]
medium (conditioned by secondary species or non-conditioned control): A. baumannii	41.5 ± 2.6 (≈ 90.7 µM)	-0.0946 ± 0.0024	3.37 ± 0.23
medium (conditioned by secondary species or non-conditioned control): A. fumigatus	4.51 ± 1.3 (≈ 9.87 µM)	-0.12 ± 0.034	5.95 ± 4.4
medium (conditioned by secondary species or non-conditioned control): A. xylosoxidans	29.9 ± 15 (≈ 65.4 µM)	-0.193 ± 0.029	6.19 ± 3.1
medium (conditioned by secondary species or non-conditioned control): B. cepacia	65.8 ± 34 (≈ 144 µM)	-0.464 ± 0.13	1.13 ± 0.18
medium (conditioned by secondary species or non-conditioned control): C. albicans	7.19 ± 3.2 (≈ 15.7 µM)	-0.223 ± 0.072	5.63 ± 7.1
medium (conditioned by secondary species or non-conditioned control): H. influenzae	9.75 ± 0.44 (≈ 21.3 µM)	-0.198 ± 0.017	1.67 ± 0.093
medium (conditioned by secondary species or non-conditioned control): M. abcessus	81 ± 10 (≈ 177 µM)	-0.72 ± 0.062	0.784 ± 0.0094
medium (conditioned by secondary species or non-conditioned control): M. avium	6.33 ± 2.2 (≈ 13.8 µM)	-0.13 ± 0.057	5.77 ± 6.8
medium (conditioned by secondary species or non-conditioned control): M. catarrhalis	21.1 ± 7.2 (≈ 46.2 µM)	-0.0725 ± 0.054	3.92 ± 3.6
medium (conditioned by secondary species or non-conditioned control): MH broth	18.7 ± 5.8 (≈ 40.9 µM)	-0.41 ± 0.051	1.16 ± 0.093
medium (conditioned by secondary species or non-conditioned control): MH broth + ADC	3.939 ± 0.011	-0.071 ± 0.0075	15 ± 0.58
medium (conditioned by secondary species or non-conditioned control): MH broth + LHB + NAD	8.7 ± 3	-0.184 ± 0.081	1.74 ± 0.69
medium (conditioned by secondary species or non-conditioned control): MH broth + glucose	19.7 ± 5.8	-0.432 ± 0.079	1.2 ± 0.25
medium (conditioned by secondary species or non-conditioned control): R. mannitolilytica	72.8 ± 23 (≈ 159 µM)	-0.649 ± 0.13	0.909 ± 0.074
medium (conditioned by secondary species or non-conditioned control): S. aureus	87.8 ± 18 (≈ 192 µM)	-0.776 ± 0.079	0.785 ± 0.035
medium (conditioned by secondary species or non-conditioned control): S. maltophilia	81 ± 24 (≈ 177 µM)	-0.713 ± 0.1	0.781 ± 0.041
medium (conditioned by secondary species or non-conditioned control): S. pneumoniae	4.82 ± 0.48 (≈ 10.5 µM)	-0.0595 ± 0.019	2.06 ± 0.38

C[C@@H]1O[C@@H]1P(=O)(O)O [fosfomycin]
Settings	EC50, [1] [µg/mL]	Emax, [3]	Hill coefficient, [2]
medium (conditioned by secondary species or non-conditioned control): A. baumannii	149 ± 5 (≈ 1080 µM)	-0.132 ± 0.0037	2.21 ± 0.42
medium (conditioned by secondary species or non-conditioned control): A. fumigatus	16.6 ± 0.41 (≈ 120 µM)	-0.117 ± 0.0062	1.48 ± 0.082
medium (conditioned by secondary species or non-conditioned control): A. xylosoxidans	201 ± 22 (≈ 1450 µM)	-0.189 ± 0.029	2.09 ± 0.17
medium (conditioned by secondary species or non-conditioned control): B. cepacia	81.7 ± 4.4 (≈ 592 µM)	-0.0776 ± 0.0022	3.68 ± 0.42
medium (conditioned by secondary species or non-conditioned control): C. albicans	10.6 ± 0.21 (≈ 77 µM)	-0.134 ± 0.0084	1.72 ± 0.087
medium (conditioned by secondary species or non-conditioned control): H. influenzae	72.3 ± 2.4 (≈ 524 µM)	-0.354 ± 0.025	1.57 ± 0.096
medium (conditioned by secondary species or non-conditioned control): M. abcessus	43.8 ± 4.9 (≈ 318 µM)	-0.177 ± 0.021	2.3 ± 0.51
medium (conditioned by secondary species or non-conditioned control): M. avium	34.4 ± 1.7 (≈ 249 µM)	-0.196 ± 0.007	1.9 ± 0.14
medium (conditioned by secondary species or non-conditioned control): M. catarrhalis	66.6 ± 0.91 (≈ 483 µM)	-0.126 ± 0.014	2.47 ± 0.59
medium (conditioned by secondary species or non-conditioned control): MH broth	22.4 ± 0.44 (≈ 163 µM)	-0.173 ± 0.013	2.99 ± 0.21
medium (conditioned by secondary species or non-conditioned control): MH broth + ADC	23.6 ± 1.3	-0.194 ± 0.032	2.25 ± 0.25
medium (conditioned by secondary species or non-conditioned control): MH broth + LHB + NAD	47 ± 9.4	-0.233 ± 0.044	1.88 ± 0.49
medium (conditioned by secondary species or non-conditioned control): MH broth + glucose	17.7 ± 1.7	-0.136 ± 0.016	1.47 ± 0.062
medium (conditioned by secondary species or non-conditioned control): R. mannitolilytica	65.4 ± 3.8 (≈ 473 µM)	-0.111 ± 0.037	3.11 ± 0.87
medium (conditioned by secondary species or non-conditioned control): S. aureus	47.35 ± 0.39 (≈ 343 µM)	-0.122 ± 0.01	3.29 ± 0.14
medium (conditioned by secondary species or non-conditioned control): S. maltophilia	81.9 ± 1.6 (≈ 593 µM)	-0.102 ± 0.008	2.83 ± 0.079
medium (conditioned by secondary species or non-conditioned control): S. pneumoniae	45.9 ± 9 (≈ 332 µM)	-0.276 ± 0.047	1.54 ± 0.4

C[C@H]1[C@H](NC(=O)/C(=N\OC(C)(C)C(=O)O)c2csc(N)n2)C(=O)N1S(=O)(=O)O [aztreonam]
Settings	EC50, [1] [µg/mL]	Emax, [3]	Hill coefficient, [2]
medium (conditioned by secondary species or non-conditioned control): A. baumannii	4.5 ± 0.19 (≈ 10.3 µM)	-0.0894 ± 0.029	6.71 ± 1.7
medium (conditioned by secondary species or non-conditioned control): A. fumigatus	5.15 ± 0.39 (≈ 11.8 µM)	-0.0521 ± 0.0088	5.79 ± 2.4
medium (conditioned by secondary species or non-conditioned control): A. xylosoxidans	4.96 ± 0.71 (≈ 11.4 µM)	-0.0816 ± 0.0036	6.69 ± 2.9
medium (conditioned by secondary species or non-conditioned control): B. cepacia	4.4 ± 0.048 (≈ 10.1 µM)	-0.108 ± 0.0022	7.76 ± 0.36
medium (conditioned by secondary species or non-conditioned control): C. albicans	6.25 ± 0.4 (≈ 14.4 µM)	-0.0614 ± 0.0082	3.57 ± 0.66
medium (conditioned by secondary species or non-conditioned control): H. influenzae	5.7 ± 0.48 (≈ 13.1 µM)	-0.196 ± 0.031	1.98 ± 0.12
medium (conditioned by secondary species or non-conditioned control): M. abcessus	4.66 ± 0.58 (≈ 10.7 µM)	-0.0657 ± 0.0066	6.22 ± 3.1
medium (conditioned by secondary species or non-conditioned control): M. avium	4.58 ± 0.48 (≈ 10.5 µM)	-0.0782 ± 0.013	6.26 ± 3.3
medium (conditioned by secondary species or non-conditioned control): M. catarrhalis	5.07 ± 0.58 (≈ 11.6 µM)	-0.16 ± 0.04	4.2 ± 1.3
medium (conditioned by secondary species or non-conditioned control): MH broth	4.48 ± 0.076 (≈ 10.3 µM)	-0.0757 ± 0.013	7.92 ± 0.78
medium (conditioned by secondary species or non-conditioned control): MH broth + ADC	4.55 ± 0.2	-0.0421 ± 0.0043	5.14 ± 2.6
medium (conditioned by secondary species or non-conditioned control): MH broth + LHB + NAD	4.7 ± 0.13	-0.148 ± 0.012	3.43 ± 0.61
medium (conditioned by secondary species or non-conditioned control): MH broth + glucose	5.04 ± 0.57	-0.0548 ± 0.019	4.64 ± 3.1
medium (conditioned by secondary species or non-conditioned control): R. mannitolilytica	4.356 ± 0.014 (≈ 10 µM)	-0.0751 ± 0.0047	7.94 ± 0.25
medium (conditioned by secondary species or non-conditioned control): S. aureus	4.88 ± 0.38 (≈ 11.2 µM)	-0.072 ± 0.013	4.66 ± 2.3
medium (conditioned by secondary species or non-conditioned control): S. maltophilia	4.32 ± 0.12 (≈ 9.92 µM)	-0.114 ± 0.028	3.3 ± 0.38
medium (conditioned by secondary species or non-conditioned control): S. pneumoniae	5.6 ± 0.39 (≈ 12.9 µM)	-0.138 ± 0.0056	3.85 ± 0.91
